Substitutions are numbered along the chain they refer to.

Results on one molecule are retold here after article PMC8119899, “A Single Mutation in the Outer Lipid-Facing Helix of a Pentameric Ligand-Gated Ion Channel Affects Channel Function Through a Radially-Propagating Mechanism” (Frontiers in Molecular Biosciences, 2021).

Assay type in all cases: cell-based
Assay [1] deals with T1, 5-HT3A receptor D238A (Mus musculus, UniProt P23979, D265A).
T1 sequence (P23979 24-489 D265A): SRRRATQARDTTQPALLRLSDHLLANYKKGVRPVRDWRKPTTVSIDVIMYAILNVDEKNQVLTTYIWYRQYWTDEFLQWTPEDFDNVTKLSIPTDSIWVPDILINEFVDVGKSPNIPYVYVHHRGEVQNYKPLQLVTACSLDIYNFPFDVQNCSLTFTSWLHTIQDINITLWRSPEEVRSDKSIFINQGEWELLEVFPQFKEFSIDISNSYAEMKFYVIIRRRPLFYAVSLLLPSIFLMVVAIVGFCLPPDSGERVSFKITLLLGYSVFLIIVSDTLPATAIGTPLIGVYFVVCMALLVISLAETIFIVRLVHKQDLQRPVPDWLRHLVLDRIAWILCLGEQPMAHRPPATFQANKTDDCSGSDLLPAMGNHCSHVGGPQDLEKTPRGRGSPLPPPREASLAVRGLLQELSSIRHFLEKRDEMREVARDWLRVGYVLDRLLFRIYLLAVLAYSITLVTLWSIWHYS
Nature of the assay: Two-electrode voltage clamp, 5-HT response, D238A receptor in Xenopus oocytes. Set-up: key: Mutants that did not respond in the functional assay are marked as non functional (NF). The protocol: (§1) The mouse 5-HT3A cDNA (Q6J1J7) in pcDNA3.1 (for HEK cell transfection) or pGEMHE (for RNA production) was modified by QuikChange site-directed mutagenesis (Agilent Technologies) to create point mutants (verified by sequencing).
Xenopus laevis oocytes from EcoCyte Biosciences (Austin Texas) were injected with 100 pg cRNA (generated with the ThermoFisher mMESSAGE mMACHINE T7 transcription kit) and left in injection media [88 mM NaCl, 2.4 mM NaHCO3, 1 mM KCl, 0.82 mM MgSO4 ·7H20, 5 mM Tris-HCl, 0.33 mM Ca(NO3)2·4H2O, 0.41 mM CaCl2·2H2O, 2.51 mM sodium pyruvate, 0.12 mg/ml theophylline, 0.05 mg/ml gentamicin, pH 7.5] at 16 °C for 24 h. […] The holding potential was −60 mV, using glass microelectrodes with a resistance of approximately 1 MΩ backfilled with 3M KCl.
(In general: In two-electrode clamp one electrode senses voltage and the other passes current.)

Assay [2] deals with T1, 5-HT3A receptor D238A. As to the kind of experiment: FlexStation membrane potential dye, 5-HT response, D238A receptor in HEK293 cells. On the set-up: expressed in transfected cells; host or cells: HEK293; key to pEC50: Mutants that did not respond in the functional assay are marked as non functional (NF). The protocol: as §1
Human embryonic kidney (HEK) 293 cells were maintained at 37 °C at 5% CO2 in a humidified atmosphere, in Dulbecco's Modified Eagle's Medium/Nutrient Mix F12 (1:1) (Invitrogen, Paisley, UK) with GlutaMAX^TM and 10% fetal bovine serum (GE Healthcare) (DMEM/FBS) and passaged when confluent. Five micrograms of WT or mutant 5-HT3A DNA and 30 μl polyethyleneamine (Polysciences) incubated for 10 min in 1 mL DMEM was added to 60% confluent HEK293 cells for transfection, and cells grown for 2 days before assays.
(§2) As described previously (Price and Lummis, [2005]) cells were incubated for 45 min with fluorescent membrane potential-sensitive dye (Membrane Potential Blue kit, Molecular Devices) diluted in Flex buffer (10 mM HEPES, 115 mM NaCl, 1 mM KCl, 1 mM CaCl2, 1 mM MgCl2, and 10 mM glucose, pH 7.4), and subsequently assayed at room temperature for 180 s, with readings every 2 s. […] (log of the concentration of ligand), a is the minimum response, b is the maximum response, and nH is the Hill slope.

The next assay has as its target T2, 5-HT3A receptor K255A (Mus musculus, UniProt P23979, K282A).
T2 sequence (P23979 24-489 K282A): T1 sequence (P23979 24-489 D265A) with A242D, K259A
Nature of the assay: FlexStation membrane potential dye, 5-HT response, K255A receptor in HEK293 cells. The following applies: mean and SEM, n ≥ 3. Set-up: expressed in transfected cells; host or cells: HEK293. The protocol: as §1
(§3) Human embryonic kidney (HEK) 293 cells were maintained at 37 °C at 5% CO2 in a humidified atmosphere, in Dulbecco's Modified Eagle's Medium/Nutrient Mix F12 (1:1) (Invitrogen, Paisley, UK) with GlutaMAX^TM and 10% fetal bovine serum (GE Healthcare) (DMEM/FBS) and passaged when confluent.
as §2

The target of another assay is T3, 5-HT3A receptor S297A (Mus musculus, UniProt P23979, S324A).
T3 construct: expressed in transfected cells; host or cells: HEK293
T3 sequence (P23979 24-489 S324A): T1 sequence (P23979 24-489 D265A) with A242D, S301A
Nature of the assay: FlexStation membrane potential dye, 5-HT response, S297A receptor in HEK293 cells. To be noted: mean and SEM, n ≥ 3. Here is the method: as §1, §3, §2

Take `NCCc1c[nH]c2ccc(O)cc12` [5-HT]: the pEC50 result on 5-HT3A receptor D238A [1] and at 5-HT3A receptor D238A [2] was “NF” each time. For the same molecule, the “response to application of 5-HT” value at 5-HT3A receptor D238A [2] is recorded as “Neither Y441A nor D238A responded”. The nH on 5-HT3A receptor K255A turned out to be 2.6± 0.1; on 5-HT3A receptor S297A, 3.5 ± 0.8.
